Results reported in patent US11357847B2, “Modified HSV gD protein and vaccine containing same” (KM Biologics Co., Ltd., priority 2017, dated 2022).

What was measured:
HSV-2 MS strain = experiment: Mouse infection-prevention test of modified gD (genital herpes infection model); type: in vivo, BALB/c mice; design: key to Determination (vs gD1-315) / Determination# (vs gD1-315): ++: minimum effective dose based on the Significant difference test in three-fold common ratio relative to gD1-315(WT) of two or more doses stronger; +: those of one dose stronger; ±: those of an equivalent value
Protocol: Immunogenicity test of the modified gD antigen was performed using the wild-type gD antigen gD1-315 (WT) as a positive control and saline as a negative control. A predetermined amount of antigen was dissolved in saline for injection (saline) with MPLA (10 μg/mouse) and CpG (1 μg/mouse) and immunized to mice at a volume of 200 μL/mouse. BALB/c mice (5 weeks old, female) were used for the study and immunized subcutaneously in back at 2-week intervals for a total of 3 times (N=4 cases per group). Two weeks after the final immunization (third dose), blood was collected and serum was prepared for each individual. The prepared serum was serially diluted and assessed for neutralizing antibody-inducing activity against HSV-2 (50% plaque number-reducing activity).
An infection-prevention test in the preventive administration of modified gD antigen was performed using a mouse genital herpes infection model. Similar to the mouse immunogenicity test described above, mice were immunized with the number of N=10 cases per group. Depo-Provera was inoculated subcutaneously at 2 mg/mouse 6 days prior to viral inoculation to improve the multiplicity of infection upon viral inoculation 2 weeks after final immunization (third dose). 5×10^5 PFU/20 μL HSV-2 MS strain was inoculated transvaginally under anesthesia and observed for 21 days. Infection prevention ability was evaluated using survival time (survival rate) as index.
The infection model of the mouse genital herpes infection model was used to evaluate infection prevention ability of various modified gD in preventive administration. The number of animal cases in each group was set to n=10, and wild-type gD (gD1-315) was used as a positive control and saline was used as a negative control. The experiments were performed a total of four times (experiments 1-4) and four doses of 0.1 μg/mouse/time, 0.03 μg/mouse/time, 0.01 μg/mouse/time and 0.003 μg/mouse/time were set for all of the positive control, negative control, and subject modified gD antigen. Depo-Provera was inoculated subcutaneously at 2 mg/mouse 6 days prior to viral inoculation to improve the multiplicity of infection upon viral inoculation 2 weeks after final immunization (third dose). 5×10^5 PFU/20 HSV-2 MS strain was inoculated transvaginally under anesthesia and observed for 21 days. Infection prevention ability was evaluated using survival time (survival rate) as index. Mean values of those were plotted in the graph. A Significant difference test for the negative control group was performed by the Kaplan-Meier method, and those with a minimum effective dose based on the Significant difference test in three-fold common ratio relative to wild type gD of two or more doses stronger were determined to be “++”, those of one dose stronger were determined to be “+”, and those of an equivalent value were determined to be “±”.

[1] = test system: various anti-gD2 antibodies; experiment: Reactivity of gD variants with anti-gD2 antibodies (competitive ELISA); type: binding, human; conditions: for Reactivity with anti-gD2 antibody 1 / Reactivity with anti-gD2 antibody 5 / Reactivity with anti-gD2 antibody 13 / Reactivity with anti-gD2 antibody 72 / Reactivity with anti-gD2 antibody 75 / Reactivity with anti-gD2 antibody 78 / Reactivity with anti-gD2 antibody 82: immobilized gD variant
Text: Each anti-gD2 monoclonal antibody and each gD variant were expressed using an Expi293 expression system.

HVEM = biological target: T1, HVEM (Homo sapiens, UniProt Q92956); experiment: Reactivity of HVEM with gD variants (competitive ELISA); type: binding; conditions: compared to the original gD1-315; FIG. 14
T1 sequence (Q92956 39-202): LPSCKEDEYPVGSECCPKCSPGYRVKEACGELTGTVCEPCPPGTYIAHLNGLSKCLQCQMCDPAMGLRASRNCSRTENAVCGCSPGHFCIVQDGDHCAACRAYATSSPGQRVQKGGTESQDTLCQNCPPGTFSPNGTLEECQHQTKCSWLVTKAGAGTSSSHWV
Protocol: From the above discussion, it can be strongly inferred that each variant takes the structure in which FR1 is bound to the receptor binding region. The reactivity of HVEM with each variant was then measured by competitive ELISA.
HVEM can bind gD for the first time when FR1 binds to the receptor binding region and takes a characteristic hairpin structure. […] FR3-deficient gD1-275v5-55 promoted FR1 binding and further HVEM binding over other gD1-315-based variants in which FR3 was present.

[2] = Experiment 1, 0.003 μg/head/time
[3] = Experiment 1, 0.01 μg/head/time
[4] = Experiment 1, 0.03 μg/head/time
[5] = Experiment 2, 0.003 μg/head/time
[6] = Experiment 2, 0.01 μg/head/time
[7] = Experiment 2, 0.03 μg/head/time
[8] = Experiment 3, 0.003 μg/head/time
[9] = Experiment 3, 0.01 μg/head/time
[10] = Experiment 3, 0.03 μg/head/time
[11] = Experiment 4, 0.003 μg/head/time
[12] = Experiment 4, 0.01 μg/head/time
[13] = Experiment 4, 0.03 μg/head/time

## gD1-315: wild-type soluble gD ectodomain 1-315 of HSV-2 333 strain, SEQ ID NO: 1; positive control [reference compound]
HSV-2 MS strain; [2]
  Mean survival time: 6.5 days
  Significant difference test (vs saline): N.S.
HSV-2 MS strain; [3]
  Mean survival time: 7 days
  Significant difference test (vs saline): N.S.
HSV-2 MS strain; [4]
  Mean survival time: >21 days
  Significant difference test (vs saline): *** (*** p < 0.001)
HSV-2 MS strain; Experiment 1, 0.1 μg/head/time
  Mean survival time: >21 days
  Significant difference test (vs saline): *** (*** p < 0.001)
HSV-2 MS strain; [5]
  Mean survival time: 7.5 days
  Significant difference test (vs saline): N.S.
HSV-2 MS strain; [6]
  Mean survival time: 7.5 days
  Significant difference test (vs saline): N.S.
HSV-2 MS strain; [7]
  Mean survival time: >14.5 days
  Significant difference test (vs saline): N.S.
HSV-2 MS strain; Experiment 2, 0.1 μg/head/time
  Mean survival time: >22 days
  Significant difference test (vs saline): *** (*** p < 0.001)
HSV-2 MS strain; [8]
  Mean survival time: 6 days
  Significant difference test (vs saline): N.S.
HSV-2 MS strain; [9]
  Mean survival time: 8 days
  Significant difference test (vs saline): * (* 0.01 = < p < 0.05)
HSV-2 MS strain; [10]
  Mean survival time: >21 days
  Significant difference test (vs saline): *** (*** p < 0.001)
HSV-2 MS strain; Experiment 3, 0.1 μg/head/time
  Mean survival time: >21 days
  Significant difference test (vs saline): *** (*** p < 0.001)
HSV-2 MS strain; [11]
  Mean survival time: 8 days
  Significant difference test (vs saline): N.S.
HSV-2 MS strain; [12]
  Mean survival time: 7.5 days
  Significant difference test (vs saline): N.S.
HSV-2 MS strain; [13]
  Mean survival time: >16.5 days
  Significant difference test (vs saline): N.S.
HSV-2 MS strain; Experiment 4, 0.1 μg/head/time
  Mean survival time: >21 days
  Significant difference test (vs saline): *** (*** p < 0.001)
[1]
  Reactivity with anti-gD2 antibody 1: + ((+): 70% or more)
  Reactivity with anti-gD2 antibody 5: + ((+): 70% or more)
  Reactivity with anti-gD2 antibody 13: + ((+): 70% or more)
  Reactivity with anti-gD2 antibody 72: + ((+): 70% or more)
  Reactivity with anti-gD2 antibody 75: + ((+): 70% or more)
  Reactivity with anti-gD2 antibody 78: + ((+): 70% or more)
  Reactivity with anti-gD2 antibody 82: + ((+): 70% or more)
HVEM
  Reactivity with HVEM: little reaction

B1: gD1-315v5: gD1-315 with glycochains at R186 (SC-A) and P50 (SC-F) (protein)
chain: KYALADPSLKMADPNRFRGKNLPVLDQLTDPPGVKRVYHIQPSLEDPFQNASIPITVYYAVLERACRSVLLHAPSEAPQIVRGASDEARKHTYNLTIAWYRMGDNCAIPITVMEYTECPYNKSLGVCPIRTQPRWSYYDSFSAVSEDNLGFLMHAPAFETAGTYLRLVKINDWTEITQFILEHRANASCKYALPLRIPPAACLTSKAYQQGVTVDSIGMLPRFIPENQRTVALYSLKIAGWHGPKPPYTSTLLPPELSDTTNATQPELVPEDPEDSALLEDPAGTVSSQIPPNWHIPSIQDVAPHHAPAAPSNPGHHHHHH
HSV-2 MS strain; [2]
  Mean survival time: 6.5 days
  Significant difference test (vs saline): N.S.
HSV-2 MS strain; [3]
  Mean survival time: >21 days
  Significant difference test (vs saline): *** (*** p < 0.001)
HSV-2 MS strain; [4]
  Mean survival time: >21 days
  Significant difference test (vs saline): *** (*** p < 0.001)
HSV-2 MS strain; Experiment 1, 0.1 μg/head/time
  Mean survival time: >21 days
  Significant difference test (vs saline): *** (*** p < 0.001)
HSV-2 MS strain; Experiment 1, minimum effective dose relative to gD1-315(WT)
  Determination (vs gD1-315): +
[1]; FIG. 13
  Relative reactivity with antibody No. 82 (gD1-315 wild-type set to 1): substantially similar reactivity
[1]
  Reactivity with anti-gD2 antibody 1: + ((+): 70% or more)
  Reactivity with anti-gD2 antibody 5: − ((−): less than 30%)
  Reactivity with anti-gD2 antibody 13: + ((+): 70% or more)
  Reactivity with anti-gD2 antibody 72: ± ((±): 30% or more and less than 70%)
  Reactivity with anti-gD2 antibody 75: − ((−): less than 30%)
  Reactivity with anti-gD2 antibody 78: − ((−): less than 30%)
  Reactivity with anti-gD2 antibody 82: + ((+): 70% or more)
HVEM
  Reactivity with HVEM: little reaction
